Tests used:
human EP2 receptor = target: T1, human EP2 receptor (Homo sapiens, UniProt P43116); experiment: Binding ability to human EP receptors ([3H]PGE2 displacement), EP2; details: membranes expressing human EP2; [3H]PGE2 3 nM; Cheng-Prusoff; read-out: pKi (M) EP2 (converted)
T1 construct: expressed in transfected cells
Method: (§1) Membranes were prepared from cells stably transfected with human EP receptor cDNA. In brief, cells were cultured to confluency, scraped from culture flasks, and centrifuged (800 g, 8 minutes, 4° C.). Cells were twice washed in ice cold homogenisation buffer containing 10 mMTris-HCl, 1 mM EDTA.2Na, 250 mM sucrose, 1 mM PMSF, 0.3 mM indomethacin, pH 7.4, homogenised and re-centrifuged as before. The supernatant was stored on ice and pellets re-homogenised and re-spun. Supernatants were pooled and centrifuged at 40000 g, 10 minutes, 4° C. Resultant membrane pellets were stored at −80° C. until use. For assay, membranes expressing human EP4, EP3, EP2 or EP1 receptors were incubated in Millipore (MHVBN45) plates containing assay buffer, radiolabelled [^3H]PGE2 and 0.1 to 10 000 nM concentrations of compounds. Incubations were performed at suitable temperatures and for suitable times to allow equilibrium to be reached. Non-specific binding was determined in the presence of 10 uM PGE2. Bound and free radiolabel was separated by vacuum manifold filtration using appropriate wash buffers, and bound radiolabel was determined by scintillation counting. Constituents of each of the buffers are included in table 1 below. […] Raven Press, New York, 2nd edition.

human EP4 receptor = target: T2, human EP4 receptor (Homo sapiens, UniProt P35408); experiment: Binding ability to human EP receptors ([3H]PGE2 displacement), EP4; details: membranes expressing human EP4; [3H]PGE2 1 nM; Cheng-Prusoff; read-out: pKi (M) EP4 (converted)
T2 construct: expressed in transfected cells
Method: as §1

human EP3 receptor = target: T3, human EP3 receptor (Homo sapiens, UniProt P43115); experiment: Binding ability to human EP receptors ([3H]PGE2 displacement), EP3; details: membranes expressing human EP3; [3H]PGE2 2.5 nM; Cheng-Prusoff; read-out: pKi (M) EP3 (converted)
T3 construct: expressed in transfected cells
T3 sequence (P43115 1-390): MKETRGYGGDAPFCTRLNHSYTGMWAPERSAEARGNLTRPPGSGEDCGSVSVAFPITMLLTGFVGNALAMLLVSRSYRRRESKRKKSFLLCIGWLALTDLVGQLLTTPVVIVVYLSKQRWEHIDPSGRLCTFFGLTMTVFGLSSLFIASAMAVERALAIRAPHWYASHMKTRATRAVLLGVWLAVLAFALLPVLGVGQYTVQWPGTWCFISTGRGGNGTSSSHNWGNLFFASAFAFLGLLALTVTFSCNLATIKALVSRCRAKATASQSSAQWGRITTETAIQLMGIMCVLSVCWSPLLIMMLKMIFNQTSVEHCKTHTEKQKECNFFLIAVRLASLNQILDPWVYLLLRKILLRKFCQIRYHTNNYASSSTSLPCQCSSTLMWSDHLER
Method: as §1

[1] = target: T4, human EP2 prostanoid receptors (Homo sapiens, UniProt P43116); experiment: Agonist activity at recombinant human EP2 prostanoid receptors (cAMP in HEK-293 clones); type: cell-based
T4 construct: expressed in transfected cells; host or cells: HEK-293
Method: Culture media was Minimal essential media (MEM), supplemented with 10% foetal bovine serum, 100 U/ml penicillin, […] streptomycin, 2.5 μg/ml fungizone, 2mM glutamine. Cells were cultured to confluency (3-4 days) prior to use. Culture media was removed, and confluent cells washed three times in MEM. […] Cells were then stimulated by the addition of 25 μl of PGE2 or agonists prepared in assay buffer. In antagonist studies, cells were pre-incubated with compounds for 30 minutes prior to PGE2-mediated stimulation Plates were incubated for 15 min at 37° C., before termination of the reaction by the addition of 25 μl 1M HCl. The plate was then frozen at -20° C. overnight before determination of cAMP concentration. Stimulated cAMP levels were determined by radioligand displacement binding. In brief, plates were thawed rapidly in a waterbath, and the samples neutralised by the addition of 25 μl 1M NaOH. 30 μl was transferred to Millipore plates pre-coated with 0.5% Polyethylenimine (PEI). Samples were diluted by addition of 90 μl cAMP determination buffer (50 mM Tris, 5 mM EDTA, pH 7.0). […] 15 μl of 2 nM (final concentration) [^3H] cAMP, and 15 μl of 3'5'-cAMP protein kinase (8 μg/well final concentration) prepared in cAMP determination buffer containing 0.1% BSA, were added to each well. Plates were incubated on ice for 2 hours, before bound and free radiolabel were separated by vacuum filtration harvesting using the Millipore vacuum manifold, using ice cold water as the termination buffer. The sealing mat was removed from the Millipore plates, and the filters allowed to dry overnight. 50 μl Microscint 0 (Packard Bioscience) was added to each well, and the plate counted using the Micro-Beta Trilux topcount ^3H program. cAMP accumulation was determined from the standard curve, and values calculated in pmoles cAMP/well. Antagonists affinities (pA2 values) were determined assuming a slope of unity and the […]-Schild equation, where pA2=log [concentration ratio-1]-log[antagonist].

T2 sequence (P35408 whole entry): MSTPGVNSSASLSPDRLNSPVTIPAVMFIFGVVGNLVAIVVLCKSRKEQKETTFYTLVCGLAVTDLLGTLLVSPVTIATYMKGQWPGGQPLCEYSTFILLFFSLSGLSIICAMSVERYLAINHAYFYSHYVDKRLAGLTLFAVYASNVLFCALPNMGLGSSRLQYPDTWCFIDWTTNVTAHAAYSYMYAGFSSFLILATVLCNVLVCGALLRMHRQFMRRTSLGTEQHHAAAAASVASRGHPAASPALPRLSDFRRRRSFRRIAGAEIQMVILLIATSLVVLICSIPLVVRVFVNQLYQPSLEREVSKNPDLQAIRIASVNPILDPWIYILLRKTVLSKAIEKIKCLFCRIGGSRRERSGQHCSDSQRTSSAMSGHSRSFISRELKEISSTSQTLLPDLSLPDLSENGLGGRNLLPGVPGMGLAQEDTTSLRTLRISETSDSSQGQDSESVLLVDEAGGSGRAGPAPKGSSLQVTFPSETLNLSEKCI
T1 sequence (P43116 whole entry): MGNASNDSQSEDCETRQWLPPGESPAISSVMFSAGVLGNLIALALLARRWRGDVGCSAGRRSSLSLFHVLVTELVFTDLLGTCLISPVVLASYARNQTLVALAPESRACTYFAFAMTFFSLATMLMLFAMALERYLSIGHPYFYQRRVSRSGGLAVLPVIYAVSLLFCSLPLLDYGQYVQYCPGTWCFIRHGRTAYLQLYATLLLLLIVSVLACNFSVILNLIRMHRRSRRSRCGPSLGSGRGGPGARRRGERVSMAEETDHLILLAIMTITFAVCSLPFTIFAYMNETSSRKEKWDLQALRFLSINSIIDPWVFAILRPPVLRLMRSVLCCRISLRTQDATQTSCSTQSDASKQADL
T4 sequence (P43116 whole entry): as above

Row | Structure (SMILES) | Ki (human EP2 receptor) [M] | Ki (human EP4 receptor) [M] | Ki (human EP3 receptor) [M] | EC50 ([1]; HEK-293 stably transfected with human EP2, cAMP accumulation, read-out: pEC50 EP2 (converted)) [µM] | activity (EP2 part) ([1]; functional classification at EP2)
1 | Cc1ccc(-c2ccc(C(=O)Nc3cccc(CC(=O)O)c3)o2)cc1 [Compound 22, (3-{[5-(4-Methyl-phenyl)-furan-2-carbonyl]-amino}-phenyl)-acetic acid] | < 1e-05 | > 1e-05 | > 1e-05 | – | –
2 | O=C(O)Cc1cccc(NC(=O)c2ccc(-c3ccccc3C(F)(F)F)o2)c1 [Compound 23, (3-{[5-(2-Trifluoromethyl-phenyl)-furan-2-carbonyl]-amino}-phenyl)-acetic acid] | < 1e-05 | > 1e-05 | > 1e-05 | – | –
3 | O=C(O)Cc1cccc(NC(=O)c2ccc(-c3cccc(C(F)(F)F)c3)o2)c1 [Compound 24, (3-{[5-(3-Trifluoromethyl-phenyl)-furan-2-carbonyl]-amino}-phenyl)-acetic acid] | < 1e-06 | > 1e-05 | > 1e-05 | – | –
4 | O=C(O)Cc1cccc(NC(=O)c2ccc(-c3ccc(Cl)cc3Cl)o2)c1 [Compound 25, (3-{[5-(2,4-Dichloro-phenyl)-furan-2-carbonyl]-amino}-phenyl)-acetic acid] | < 1e-05 | > 1e-05 | > 1e-05 | – | –
5 | Cc1ccccc1-c1ccc(C(=O)Nc2cccc(CC(=O)O)c2)o1 [Compound 28, (3-{[5-(2-Methyl-phenyl)-furan-2-carbonyl]-amino}-phenyl)-acetic acid] | < 1e-06 | > 1e-05 | > 1e-05 | – | –
6 | O=C(O)Cc1cccc(NC(=O)c2ccc(-c3cccc(OC(F)(F)F)c3)o2)c1 [Compound 32, (3-{[5-(3-Trifluoromethoxy-phenyl)-furan-2-carbonyl]-amino}-phenyl)-acetic acid] | < 1e-06 | < 1e-05 | > 1e-05 | – | –
7 | O=C(O)Cc1cccc(NC(=O)c2ccc(-c3ccc(OC(F)(F)F)cc3)o2)c1 [Compound 33, (3-{[5-(4-Trifluoromethoxy-phenyl)-furan-2-carbonyl]-amino}-phenyl)-acetic acid] | < 1e-05 | > 1e-05 | > 1e-05 | – | –
8 | CC(C)c1ccc(-c2ccc(C(=O)Nc3cccc(CC(=O)O)c3)o2)cc1 [Compound 35, (3-{[5-(4-Isopropyl-phenyl)-furan-2-carbonyl]-amino}-phenyl)-acetic acid] | < 1e-05 | > 1e-05 | > 1e-05 | – | –
9 | O=C(O)Cc1cccc(NC(=O)c2ccc(-c3ccco3)o2)c1 [Compound 38, {3-[([2,2′]Bifuranyl-5-carbonyl)-amino]-phenyl}-acetic acid] | < 1e-05 | > 1e-05 | > 1e-05 | – | –
10 | O=C(O)Cc1cccc(NC(=O)c2ccc(-c3ccccc3)s2)c1 [Compound 43, {3-[(5-Phenyl-thiophene-2-carbonyl)-amino]-phenyl}-acetic acid] | < 1e-05 | > 1e-05 | > 1e-05 | – | –
11 | O=C(O)Cc1cccc(NC(=O)c2ccc(F)c(-c3ccccc3)c2)c1 [Compound 46, {3-[(6-Fluoro-biphenyl-3-carbonyl)-amino]-phenyl}-acetic acid] | < 1e-05 | > 1e-05 | > 1e-05 | – | –
12 | Cc1cc(-c2ccccc2)ccc1C(=O)Nc1cccc(CC(=O)O)c1 [Compound 47, {3-[(3-Methyl-biphenyl-4-carbonyl)-amino]-phenyl}-acetic acid] | < 1e-06 | > 1e-05 | > 1e-05 | – | –
13 | O=C(O)Cc1cccc(NC(=O)c2ccc(-c3ccccc3)cc2Cl)c1 [Compound 48, {3-[(3-Chloro-biphenyl-4-carbonyl)-amino]-phenyl}-acetic acid] | < 1e-05 | > 1e-05 | > 1e-05 | – | –
14 | Cc1cc(C(=O)Nc2cccc(CC(=O)O)c2)sc1-c1ccccc1 [Compound 50, {3-[(4-Methyl-5-phenyl-thiophene-2-carbonyl)-amino]-phenyl}-acetic acid] | < 1e-05 | > 1e-05 | > 1e-05 | – | –
15 | O=C(O)Cc1cccc(NC(=O)c2cnc(-c3ccccc3)[nH]2)c1 [Compound 53, {3-[(2-Phenyl-1H-imidazole-5-carbonyl)-amino]-phenyl}-acetic acid] | < 1e-05 | > 1e-05 | > 1e-05 | – | –
16 | O=C(O)c1cc2cc(NC(=O)c3ccc(-c4ccccc4)o3)ccc2[nH]1 [Compound 59, 5-[(5-Phenyl-furan-2-carbonyl)-amino]-1H-indole-2-carboxylic acid] | < 1e-05 | > 1e-05 | > 1e-05 | – | –
17 | O=C(O)c1ccc2cc(NC(=O)c3ccc(-c4ccccc4)o3)ccc2c1 [Compound 63, 6-[(5-Phenyl-furan-2-carbonyl)-amino]-naphthalene-2-carboxylic acid] | < 1e-05 | > 1e-05 | > 1e-05 | – | –
18 | NC(=O)Cc1cccc(NC(=O)c2ccc(-c3ccccc3)o2)c1 [Compound 73, 5-Phenyl-furan-2-carboxylic acid (3-carbamoylmethyl-phenyl)-amide] | < 1e-05 | > 1e-05 | > 1e-05 | – | –
19 | O=C(Nc1cccc(Cc2nnn[nH]2)c1)c1ccc(-c2ccccc2)o1 [Compound 75, 5-Phenyl-furan-2-carboxylic acid [3-(1H-tetrazol-5-ylmethyl)-phenyl]-amide] | < 1e-07 | > 1e-05 | > 1e-05 | – | –
20 | O=C(Nc1cccc(Cc2nnn[nH]2)c1)c1ccc(-c2cccc(F)c2)o1 [Compound 86, 5-(3-Fluoro-phenyl)-furan-2-carboxylic acid [3-(1H-tetrazol-5-ylmethyl)-phenyl]-amide] | < 1e-07 | > 1e-05 | – | < 0.1 | EP2 Agonist
21 | O=C(O)c1cc2cc(NC(=O)c3ccc(-c4ccccc4)o3)ccc2o1 [Compound 96, 5-[(5-Phenyl-furan-2-carbonyl)-amino]-benzofuran-2-carboxylic acid] | < 1e-06 | > 1e-05 | > 1e-05 | – | –
22 | O=C(O)/C=C/c1cccc(NC(=O)c2ccc(-c3cc(C(F)(F)F)cc(C(F)(F)F)c3)o2)c1 [Compound 102, 3-(3-{[5-(3,5-Bis-trifluoromethyl-phenyl)-furan-2-carbonyl]-amino}phenyl)-acrylic acid] | < 1e-07 | > 1e-05 | > 1e-05 | – | –
23 | O=C(O)/C=C/c1cccc(NC(=O)c2ccc(-c3cccc(-c4ccccc4)c3)o2)c1 [Compound 103, 3-{3-[(5-Biphenyl-3-yl-furan-2-carbonyl)-amino]-phenyl}-acrylic acid] | < 1e-07 | < 1e-06 | > 1e-05 | – | –
24 | O=C(O)/C=C/c1cccc(NC(=O)c2ccc(-c3cccc(OCc4ccccc4)c3)o2)c1 [Compound 104, 3-(3-{[5-(3-Benzyloxy-phenyl)-furan-2-carbonyl]-amino}-phenyl)-acrylic acid] | < 1e-07 | > 1e-05 | > 1e-05 | – | –
25 | O=C(O)/C=C/c1cccc(NC(=O)c2ccc(-c3ccc(-c4ccccc4)c(F)c3)o2)c1 [Compound 105, 3-(3-{[5-(2-Fluoro-biphenyl-4-yl)-furan-2-carbonyl]-amino}-phenyl)-acrylic acid] | < 1e-06 | > 1e-05 | > 1e-05 | – | –
